Source: patent US7056693B2 (priority 1998, dated 2006)

System: National Cancer Institute's 60 cell line
Format: cell-based

Question: How did the “Activity profile in the 60 cell line database compared with LF” value turn out when “2-(2′-amino-3′-methoxyphenyl)-oxanaphthalen-4-one [PDO9859]” was run?
Answer: activity profile that is similar to LF
